The source of these data is patent US20240216320A1, “COMPOSITIONS AND METHODS FOR TREATING SICKLE CELL DISEASE” (Augusta University Research Institute, Inc., priority 2019, published 2024).

Series [1] has as its system HbF in K562 cells. The series is described as follows: Western blot of HbF levels in K562 cells. It is filed as cell-based. The conditions noted are these: 48 h, AN-233 dose-dependent. The procedure: (§1) K562 cells were cultured in Iscove's Modified Dulbecco medium (IMDM) with 10% fetal bovine serum, penicillin (100 U/mL) and streptomycin (0.1 mg/mL). Drug inductions for K562 cells were conducted for 48 h and cell viability evaluated with 0.4% Trypan blue exclusion. Cell counts were performed a dual chamber apparatus and the percentage viability obtained using an Automated Cell Counter (Bio-Rad).
Western blot analysis was performed using whole cell lysates generated with RIPA buffer (ThermoScientific, Rockford, IL) supplemented with proteinase and phosphatase inhibitor cocktails. For histone acetylation studies, nuclear lysates were prepared by suspending cells in buffer containing 20 mM HEPES, pH 7.9, 50 mM KCl, 420 mM NaCl, 0.1 mM EDTA, 1 mM DTT, 10% glycerol and protease inhibitor mixture for 30 min, followed by centrifugation. Antibodies against HbF (51-7), HbA (37-8), and Tata binding protein (TBP; N-12) were purchased from Santa Cruz Biotechnology (Dallas TX); antibodies against β-actin (A5316) and rabbit IgG (18140) were purchased from Sigma (St. Louis MO). Acetylated histone H3 (AcH3; 06-599) and AcH4 (06-866) antibodies were purchased from Millipore (Burlington, MA).

The subject of series [2] is intracellular heme in K562 cells. The series is described as follows: QuantiChrom heme quantitation assay in K562 cells. It is filed as cell-based. The note with it: ALA 0.5 and 2.0 mM, hemin 75 μM. The procedure: The total cellular heme content was determined using the QuantiChrom™ Heme Assay Kit (DIHM-250, BioAssay Systems, Hayward, CA) per the manufacturer's instructions. Briefly, 25 μL of cellular lysate was mixed with 100 μL of detection reagent. The mixture was incubated at room temperature for 5 min followed by measuring the absorbance at 400 nm on a microplate reader. The total heme concentration was calculated based on a formula provided by the manufacturer: Heme concentration=(OD^sample−OD^blank)/(OD^calibrator−OD^blank)×125× dilution factor. This value was normalized by total protein in each sample.

Series [3] has as its system γ-globin mRNA in K562 cells. The experiment in a line: γ-globin transcription by RT-qPCR in K562 cells. It is filed as cell-based. The note with it: 48 h; for increase in γ-globin mRNA levels: 0.125 mM. The procedure:
Initial studies were conducted in K562 cells to determine the ability of AN-233 to induce γ-globin transcription and HbF expression. K562 cells display characteristics of erythroid cells including expression of the ε, γ and α globin genes and these cells are useful for initial drug screening and discovery of potential HbF inducers.
K562 cells were treated with AN-233 for 48 h and globin gene transcription was analyzed by RT-qPCR. […]
as §1
Total RNA was extracted from cells using Trizol (Ambion, Carlsbad CA) and analyzed by RT-qPCR as previously published by our group. Gene-specific primers were used to quantify mRNA levels for γ-globin, β-globin and internal control glyceraldehyde-3-phosphate de-hydrogenase (GAPDH). All mRNA levels were normalized to GAPDH before analysis.

For series [4], the system named is HbF in sickle erythroid precursors. The experiment in a line: F-cells and HbF MFI by flow cytometry in sickle erythroid precursors. It is filed as cell-based, human. The procedure:
(§2) For primary cultures, erythroid precursors were generated from peripheral blood mononuclear cells isolated from discard blood of sickle patients under an IRB exempt protocol. These cells were cultured in a two-phase liquid culture system previously published (Li, B., et al., Haematologica 103:e384-e387 (2018)).
(§3) During phase 1, cells were grown in Iscove's Dulecco Media with 15% fetal bovine serum, 15% human AB serum, 10 ng/mL interleukin-3, 50 ng/mL stem cell factor and 2 IU/mL of erythropoietin (Peprotech, Rocky Hill NJ). Phase 2 of culture initiated on day 7 with a similar medium without stem cell factor and interleukin-3. On day 8, erythroid precursors were treated with AN-233 (0.125 mM and 0.25 mM), ethanol (EtOH; […] and 0.016%) and the positive control HU (100 μM) for 48 h and harvested for the various analyses.
(§4) To measure percent HbF positive cells (F-cells), K562 cells and erythroid precursors were fixed with 1% formaldehyde, permeabilized with ice-cold acetone:methanol (4:1 ratio) and stained with fluorescein isothiocyanate (FITC) anti-HbF antibody (ab19365, Abcam Cambridge MA) and isotype control IgG antibody (MBS524511, MyBioSource, San Diego CA) was used to detect non-specific staining. The F-cells levels and HbF protein levels measured by mean fluorescence intensity (MFI) were analyzed on an LSR-II flow cytometer (BD Biosciences, San Jose CA) and FlowJo analysis to generate quantitative data.
On the technique in general: Flow cytometry measures light scatter and fluorescence of single cells or particles in a stream.

Series [5] has as its system sickle erythroid precursors. The experiment in a line: In vitro sickling assay under 2% oxygen. It is filed as cell-based, human. As for the experimental part:
In vitro sickling studies were conducted as previously published by our group (Zhu, X., et al., Blood, 131:558-562 (2018)). Briefly, after drug inductions of sickle erythroid pre-cursors for 48 h, cells were incubated in 2% oxygen overnight and then fixed with 2% formaldehyde. Erythroid morphology was evaluated microscopically and the number of sickled cells per high power field manually counted for 1000 cells, per triplicates per condition.

A further series relates to β-YAC transgenic mice. The series is described as follows: Toxicity, body weight, blood counts and reticulocytes in β-YAC transgenic mice. The conditions noted are these: β-YAC mice. The procedure: The β-YAC is a transgenic mouse model containing the full-length 81 kb human β-globin gene locus including the LCR and surrounding region. The five functional human globin genes 5′-ε-Gγ-Aγ-[…]-β-3′ are present and undergo normal developmental regulation with the γ-globin gene silenced shortly after birth. β-YAC mice (5-6 months old) were administered AN-233 suspended in water (200 or 300 mg/kg) 5 days/week for 4 weeks by intraperitoneal injection; five mice per group with 3 males and 2 females were treated. Hydroxyurea (100 mg/kg) was included as a positive control. Blood was collected by tail bleed at week 0, 2 and 4 and analyzed for automated complete blood counts with differential using a Micros 60 machine (HORIBA Medical/ABX Diagnostics). The level of F-cells and MFI were performed by flow cytometry. For reticulocyte counts, whole blood was stained with acridine orange and flow cytometry performed on an LSR-II flow cytometer (BD Biosciences).

The subject of series [6] is HbF in K562 cells. The experiment in a line: HbF positive cells (F-cells) by flow cytometry in K562 cells. The conditions noted are these: pretreatment with SB203580 10 μM followed by 0.25 mM AN-233. It is filed as cell-based. As for the experimental part: as §1, §4
In series [7] the test system is HbF in sickle erythroid precursors. The series is described as follows: Western blot of HbF in sickle erythroid precursors. It is filed as cell-based, human. The conditions noted are these: SB203580 treatment with 0.25 mM AN-233. As for the experimental part:
as §2, §3
Western blot analysis was performed using whole cell lysates generated with RIPA buffer (ThermoScientific, Rockford, IL) supplemented with proteinase and phosphatase inhibitor cocktails. For histone acetylation studies, nuclear lysates were prepared by suspending cells in buffer containing 20 mM HEPES, pH 7.9, 50 mM KCl, 420 mM NaCl, 0.1 mM EDTA, 1 mM DTT, 10% glycerol and protease inhibitor mixture for 30 min, followed by centrifugation. […]
Background: A western blot detects proteins with antibodies after separation by electrophoresis.

The test system of series [8] is HbF in patients with β-thalassemia. The conditions noted are these: cited from earlier work.

Take `NCC(=O)CCC(=O)O` [ALA, δ-aminolevulinate]: the “increase in HbF by Western blot” value with HbF in K562 cells [1] was 6 fold. In [2], the “heme levels in control experiments” value is reported as “increased heme levels”. Further, in series [3], the “increase in γ-globin mRNA levels” value is 1.5 fold.

Consider `CCCC(=O)O` [BA, butyric acid], for which the “increase in HbF by Western blot” value in the series with HbF in K562 cells [1] was found to be 2 fold. Besides, the “increase in γ-globin mRNA levels” value in series [3] turned out to be 3 fold.

Turning to `NC(=O)NO` [HU, hydroxyurea], the “HbF measured by MFI, compared with AN-233” value in series [4] (sickle erythroid precursors, HU 100 μM) is “comparable”. Further, the “anti-sickling effect, compared with AN-233” value in series [5] (2% oxygen overnight, HU) is on record as “similar”. The “blood counts (Hb, hematocrit, white blood cells, platelets)” value in the series on β-YAC transgenic mice (4-week treatment, AN-233 at both doses, HU 100 mg/kg) is “decreased total Hb, hematocrit, and white blood cell and platelet counts”. In the series with β-YAC transgenic mice (HU 100 mg/kg ip, week 4, p=0.002), this molecule had an increase in reticulocytes of 1.9 fold. Also, the body weights result in the series on β-YAC transgenic mice (ip, 4 weeks of treatment, all groups) is “normal body weights were maintained”. Besides, in [3] (HU control), the “γ-globin mRNA induction” value is listed as 1.7 fold.

Turning to `C[S+]([O-])c1ccc(-c2nc(-c3ccncc3)c(-c3ccc(F)cc3)[nH]2)cc1` (centres unmarked) [SB203580, reference compound], the “decrease in F-cell levels” value with HbF in K562 cells [6] turned out to be 30%. In addition, the “effect of pretreatment on F-cells and MFI” value in series [4] (SB203580 pretreatment, at both AN-233 concentrations) was “reduced F-cells and MFI levels”. For the same molecule, the “effect on AN-233 HbF protein increase by Western blot” value in series [7] is listed as “inhibited”. The “sickled erythroid progenitor levels after pretreatment” value in series [5] (SB203580 pretreatment before AN-233, 2% oxygen) was “higher sickled erythroid progenitor levels”.

In the case of `CCC(C)(C)C(=O)[O-].[Na+]` [sodium dimethylbutyrate], in series [8], the “patients with HbF induction” value was 70 % of patients.

Consider hemin [reference compound], for which, in [2], the “heme levels in control experiments” value is on record as “increased heme levels”.
